According to patent US20260207606A1, “DOSING SCHEDULE OF A SOLID DISPERSION OF A HER2 INHIBITOR” (Boehringer Ingelheim International GmbH, priority 2022, published 2026):

Key:
NSCLC = experiment: Phase Ia dose escalation trial: tumour response according to RECIST v1.1 in NSCLC patients; format: in vivo, human; details: for Best overall response (RECIST 1.1): Non-CR/Non-PD, % / Best overall response (RECIST 1.1): Not evaluable, % / Best overall response (RECIST 1.1): Partial response, % / Best overall response (RECIST 1.1): Progressive disease, % / Best overall response (RECIST 1.1): Stable disease, % / Best overall response (RECIST 1.1): Complete response, %: regardless of confirmation, data lock 16 Mar. 2023
From the text: Tumour assessments should include computed tomography (CT) scans of the chest, abdomen/pelvis (or PET/CT) and a brain MRI at screening. If clinically indicated, imaging of any other known or suspected sites of disease (e.g. bone) using an appropriate method (CT scan, MRI, PET/CT, or bone scan) should be performed. The same radiographic procedure must be used throughout the trial. Assessments will be performed by the investigator at screening (≤28 days prior to initiation of treatment), every 2 cycles (6 weeks ±5 days), at the end-of-treatment (EOT) visit (if not performed within the previous 3 weeks), and at the discretion of the investigator, and copies may be collected by the sponsor or designee. Wherever possible the assessment schedule should not be changed, but if there is an interruption or delay to treatment, alteration of the tumour assessment schedule to align with clinical assessments is allowed. Additional unscheduled tumour assessments may be performed at the discretion of the investigator. If the patient stops trial medication for a reason other than progression, tumour assessment according to RECIST v1.1 continues until progression (or until one of the following occurs; death, lost to follow-up, end of the trial).
Tumour response is evaluated according to RECIST Version 1.1 (Eisenhauer E A, Therasse P, Bogaerts J, Schwartz L H, Sargent D, Ford R, et al. New response evaluation criteria in solid tumours: revised RECIST guideline (version 1.1). Eur J Cancer. 2009; 45:228-247). RECIST 1.1 is used for a) whole-body assessment (classical RECIST 1.1) and b) the tumour assessment of non-CNS areas. The assessment according to classical RECIST 1.1 by the investigator and/or the local radiologist is the basis for continuation or discontinuation of the trial in an individual patient (in addition to safety). No whole-body RECIST assessment is performed in the dose escalation part.

PC-9 YVMA xenograft = experiment: Preclinical PK/TGI model for human dose prediction; design: species or system mice; details: PK/TGI model with predicted human PK parameters
Protocol: This preclinical mathematical model was built with input data from internal in vitro and in vivo data from efficacy experiments in PC-9 YVMA xenograft. Plasma exposure and tumor growth inhibition data from mice were used to train the model. The predicted human PK parameters were used to predict the human plasma profile in the preclinical PK/TGI model. In this setting the PK/TGI model was used to identify the required dose in human necessary to achieve a TGI >100%. This was predicted at 40 mg BID.

[1] = system: patients with HER2 mutation positive advanced/metastatic NSCLC; experiment: Phase Ib dose expansion, Cohort 1: safety (treatment related adverse events); format: in vivo, human; details: 120/240 mg QD, 42 patients
From the text: This Example focuses on the dose expansion part (Phase Ib) of the Phase I study described in Example 8. Approximately 275 patients diagnosed with advanced or metastatic refractory NSCLC harbouring mutations in the HER2 gene are enrolled. Patients are divided into 5 cohorts according to the main inclusion criteria listed below.
The trial objectives of Phase Ib include: • For cohort 1, cohort 2, and cohort 5, assess objective tumour response rate by central independent review; • For cohort 3, assess objective tumour response rate by investigator assessment; • For all cohorts, further investigate the safety, tolerability, and PK of the investigated doses of zongertinib in patients with HER2 mutation positive advanced/metastatic NSCLC; • For all cohorts, continue evaluating safety, and patient-reported outcomes.
The main inclusion criteria include: • Patients with a confirmed diagnosis of an advanced, unresectable and/or metastatic non-haematologic malignancy with at least one measurable lesion; • Availability and willingness to provide a sample of archival formalin-fixed paraffin embedded (FFPE) tumour tissue material; • Patients must be willing to comply with the blood sampling and tumour biopsy requirements for PK, PD and biomarker analyses; • For cohort 1: Patients with documented HER2 Tyrosine Kinase Domain (TKD) mutation positive non-squamous NSCLC who had received, in the advanced/metastatic setting, at least one line of systemic therapy that includes a platinum-based combination chemotherapy; • For cohort 2: Patients with documented HER2 Tyrosine Kinase Domain (TKD) mutation positive non-squamous NSCLC who have not received any previous lines of therapy (neo or adjuvant chemo, chemoradio or radiotherapy is permitted if at least 6 months have elapsed prior to disease progression); • For cohort 3: Patients with documented HER2 Non-TKD mutation positive NSCLC, and HER2 TKD mutation positive squamous NSCLC, who had received in the advanced/metastatic setting at least one line of systemic therapy that includes a platinum-based combination chemotherapy; • Patients in these cohorts 1 to 4 must have not received prior therapy with HER2 directed antibody-drug conjugates (ADC); • For cohort 5: Patients with documented HER2 TKD mutation positive non-squamous NSCLC who had received prior therapy with HER2 directed ADC in the advanced/metastatic setting and developed disease progression during or after completing this therapy.
The treatment consists of reiterated cycles of 3 weeks as long as the patient has clinical benefit or until undue drug toxicity or withdrawal of consent, whichever occurs first.

[2] = Phase Ia dose escalation trial: pharmacokinetics, plasma exposure; format: in vivo; details: increasing doses, BID and QD
Protocol: Pharmacokinetic (PK) profiles of compound (1) are investigated after the first and after repeated doses. Standard PK parameters are calculated, if data allows and if scientifically reasonable. […] Statistical analyses are performed.
If deemed necessary, further PK parameters might be used for these assessments.
Preliminary PK analyses can be performed as necessary for DEC decisions. The final preliminary analysis are performed at the end of the dose escalation part prior to proceeding to the dose expansion part. In contrast to the final PK analysis, the preliminary analyses are based on planned sampling times rather than on actual times; no supplementary patient information, e.g. on AEs or concomitant medication, is used in these analyses, and the outputs are not validated. Minor discrepancies between preliminary and final results may therefore occur.

[3] = 5 NSCLC patients pre-treated with trastuzumab deruxtecan, data cut-off 17 Jul. 2023

## C=CC(=O)NC1CCN(c2ncc3ncnc(Nc4ccc(Oc5ccc6c(c5)ncn6C)c(C)c4)c3n2)CC1 [compound (1), N-{1-[8-({3-methyl-4-[(1-methyl-1H-1,3-benzodiazol-5-yl)oxy]phenyl}amino)-[1,3]diazino[5,4-d]pyrimidin-2-yl]piperidin-4-yl}prop-2-enamide]
NSCLC; 180 mg QD, 5 NSCLC patients
  Best overall response (RECIST 1.1): Non-CR/Non-PD, %: 0.0%
  Best overall response (RECIST 1.1): Not evaluable, %: 20.0%
  Best overall response (RECIST 1.1): Partial response, %: 20.0%
  Best overall response (RECIST 1.1): Progressive disease, %: 0.0%
  Best overall response (RECIST 1.1): Stable disease, %: 60.0%
NSCLC; 240 mg QD, 5 NSCLC patients
  Best overall response (RECIST 1.1): Complete response, %: 0.0%
  Best overall response (RECIST 1.1): Non-CR/Non-PD, %: 0.0%
  Best overall response (RECIST 1.1): Not evaluable, %: 60.0%
  Best overall response (RECIST 1.1): Partial response, %: 40.0%
  Best overall response (RECIST 1.1): Progressive disease, %: 0.0%
  Best overall response (RECIST 1.1): Stable disease, %: 0.0%
NSCLC; 300 mg QD, 5 NSCLC patients
  Best overall response (RECIST 1.1): Complete response, %: 0.0%
  Best overall response (RECIST 1.1): Non-CR/Non-PD, %: 0.0%
  Best overall response (RECIST 1.1): Not evaluable, %: 80.0%
  Best overall response (RECIST 1.1): Partial response, %: 0.0%
  Best overall response (RECIST 1.1): Progressive disease, %: 0.0%
  Best overall response (RECIST 1.1): Stable disease, %: 20.0%
NSCLC; [3]
  tumour shrinkage, mean: −22.5%
  tumour shrinkage, median: −16.1%
  tumour shrinkage, up to: −53%
NSCLC; BID Total, 11 NSCLC patients
  Best overall response (RECIST 1.1): Complete response, %: 0.0%
  Best overall response (RECIST 1.1): Non-CR/Non-PD, %: 0.0%
  Best overall response (RECIST 1.1): Not evaluable, %: 0.0%
  Best overall response (RECIST 1.1): Progressive disease, %: 0.0%
  Best overall response (RECIST 1.1): Stable disease, %: 54.5%
NSCLC; QD Total, 21 NSCLC patients
  Best overall response (RECIST 1.1): Complete response, %: 0.0%
  Best overall response (RECIST 1.1): Non-CR/Non-PD, %: 0.0%
  Best overall response (RECIST 1.1): Not evaluable, %: 38.1%
  Best overall response (RECIST 1.1): Partial response, %: 28.6%
  Best overall response (RECIST 1.1): Progressive disease, %: 4.8%
  Best overall response (RECIST 1.1): Stable disease, %: 28.6%
NSCLC; all treated patients with NSCLC
  median duration of response (Kaplan Meier estimates): 6.9 months
PC-9 YVMA xenograft
  predicted dose in human necessary to achieve a TGI >100%: 40 mg BID
[1]
  AEs leading to treatment discontinuation: No AEs led to treatment discontinuation
  TRAE diarrhea, all grades: 29%
  TRAE diarrhea, grade ≥3: 0%
  TRAE dysgeusia, all grades: 10%
  TRAE dysgeusia, grade ≥3: 0%
  TRAE increased aspartate aminotransferase, all grades: 10%
  TRAE increased aspartate aminotransferase, grade ≥3: 2%
  TRAE low appetite, all grades: 10%
  TRAE low appetite, grade ≥3: 0%
  TRAE rash, all grades: 21%
  TRAE rash, grade ≥3: 0%
[1]; Jul. 31, 2023
  Treatment related adverse events (TRAEs), all grades: 67%
  Treatment related adverse events (TRAEs), grade ≥3: 10%
[2]
  dose proportionality of plasma exposure: no apparent deviation from dose proportional pharmacokinetics
